From Sander's compilation of Henry's law constants (doi:10.1021/es00169a013)

Assay: Henry solubility constant Hcp at 298.15 K (mol/(m3 Pa))
Conditions: reference: Dunnivant et al. (1988)

| SMILES | Henry solubility constant Hcp |
| --- | --- |
| Clc1ccc(-c2ccc(Cl)c(Cl)c2)cc1Cl [3,3',4,4'-tetrachlorobiphenyl] | 0.1 |
| Clc1cc(Cl)c(-c2cc(Cl)c(Cl)cc2Cl)cc1Cl [2,2',4,4',5,5'-hexachlorobiphenyl] | 0.075 |
| Clc1cc(Cl)c(-c2c(Cl)cc(Cl)cc2Cl)c(Cl)c1 [2,2',4,4',6,6'-hexachlorobiphenyl] | 0.013 |
| Clc1ccc(Cl)c(-c2ccccc2)c1 [2,5-dichlorobiphenyl] | 0.025 |
| Clc1ccccc1-c1ccccc1Cl [2,2'-dichlorobiphenyl] | 0.029 |
| Clc1ccc(Cl)c(-c2cc(Cl)c(Cl)cc2Cl)c1 [2,2',4,5,5'-pentachlorobiphenyl] | 0.039 |
| Clc1cc(Cl)c(-c2ccccc2)c(Cl)c1 [2,4,6-trichlorobiphenyl] | 0.015 |
| Clc1ccc(-c2ccccc2)cc1Cl [3,4-dichlorobiphenyl] | 0.048 |
| Clc1ccc(Cl)c(-c2cc(Cl)ccc2Cl)c1 [2,2',5,5'-tetrachlorobiphenyl] | 0.029 |
| Clc1cccc(-c2cccc(Cl)c2)c1 [3,3'-dichlorobiphenyl] | 0.042 |
| Clc1cccc(-c2cc(Cl)ccc2Cl)c1 [2,3',5-trichlorobiphenyl] | 0.03 |
| Clc1cccc(-c2cccc(Cl)c2Cl)c1Cl [2,2',3,3'-tetrachlorobiphenyl] | 0.049 |
| Clc1ccc(-c2ccc(Cl)cc2)cc1 [4,4'-dichlorobiphenyl] | 0.05 |
| Clc1cccc(Cl)c1-c1c(Cl)cccc1Cl [2,2',6,6'-tetrachlorobiphenyl] | 0.018 |
